From patent publication US11661398B2, “Cellular transport system for transferring a sulfonic acid construct carrying a cargo into the cytoplasm of a cell” (Scientist of Fortune, S.A., priority 2017, dated 2023)
Entries after “also recorded” stand apart in the source; their conditions may differ. Structures can show the parent of a compound that is named as a salt.

Columns and labels:
PnGGT* D385Y = test: GGT* activity assay with cell free extracts of PnGGT* mutant variants; assay type: biochemical, Pseudomonas nitroreducens; settings: 2 mM substrate
Protocol: (§1) FIG. 29. Expression analysis of selected PnGGT* mutant variants. Strain TK018 was transformed with the empty vector pACT3, the parent plasmid pPnGGT* or selected mutant variants thereof and grown in LB medium to early exponential phase. Synthesis of the PnGGT* variants was induced for 4 hours by adding 0.5 mM IPTG to the culture. (a) GGT* activity assays with cell free extracts and 2 mM of the substrate sulfobutanoyl-p-nitroanilide. […] Bars represent the average of three independent measurements with standard deviations shown as error bars. (b) SDS-PAGE of cell free extracts to confirm loading of similar protein amounts. (c) Western Blot of cell free extracts with an antibody directed against the large subunit of PnGGT* (38.5 kDa). Mutant variants Y167V Q168P and Y167H Q168G were synthesized slightly less efficiently than PnGGT*. All other mutant variants were synthesized with similar efficiency as PnGGT*.

PnGGT* P505T [1] = test: as above; assay type: biochemical, Pseudomonas nitroreducens; settings: 2 mM substrate, sodium salt
Protocol: as §1

EcGGT ΔN24 D433N = biological target: T1, EcGGT ΔN24 D433N (Escherichia coli, UniProt P18956, D433N); test: Colorimetric GGT assay in whole cell lysates; assay type: biochemical, E. coli; settings: whole cell lysate, 4 mM substrate, 50 mM Tris-HCl (pH 9.0), 410 nm
T1 construct: made in house; host or cells: E. coli (pACT3 plasmid); assayed in whole cell lysate
Text: To test for the desired activity a colorimetric enzyme assay was chosen and the substrate sulfobutanoyl-p-nitroanilide was synthesized for this purpose. Hydrolysis of this colorless substrate by a GGT variant into sulfobutanoic acid and the yellow dye 4-nitroaniline can be quantified photometrically at 410 nm. For that, cytoplasmic GGT variants containing an N-terminal 6×His-tag were first expressed from E. coli (EcGGT ΔN24) and Pseudomonas nitroreducens (PnGGT ΔN24), as well as EcGGT ΔN24 D433N and the corresponding mutant variant PnGGT ΔN24 D405N. Position D405 of PnGGT was identified to fulfill the same function as position D433 of EcGGT by sequence alignment and homology modeling between EcGGT and PnGGT. Then the ability of whole cell lysates containing the respective enzymes was tested to hydrolyze L-glutamic acid γ-(3-carboxy-4-nitroanilide) or sulfobutanoyl-p-nitroanilide.

TK082 = test: In vivo hydrolysis of sulfobutanoyl-p-nitroanilide and sulfobutanoyl-AMC; assay type: cell-based, E. coli; settings: 0.5 mM compound, different plasmid combinations
Protocol: Strain TK082 was transformed with plasmids as indicated in the text and grown at 37° C. in MS minimal medium supplemented with 0.5% glucose, 1 mM MgSO4 and 0.4 mM L-leucine to an OD600 of 0.5. At that stage, the synthesis of PnGGT* and/or SsuABC was induced for 2 hours by adding 0.5 mM IPTG and 100 ng mL^−1 aTc. Following this synthesis period, cells were washed in the same medium to remove proteins that had been released into the medium by cell lysis. After an additional centrifugation step, cells were resuspended in MS minimal medium supplemented with 0.5% glucose, 1 mM MgSO4, 0.4 mM L-leucine, 0.5 mM IPTG, 100 ng mL^−1 aTc and 0.5 mM sulfobutanoyl-p-nitroanilide or sulfobutanoyl-AMC (see below for description of synthesis) and incubated in a Tecan Infinite 200 Pro plate reader at 37° C. To monitor cell density and the release of 4-nitroaniline, absorbance was constantly measured at 600 nm and 410 nm. The release of AMC was monitored by measuring the fluorescence at λex=350 nm and λem=450 nm. To determine the influence of competition for the sulfonate transporter SsuABC, different concentrations of pentanesulfonate (Sigma Aldrich) were added to the medium.

PnGGT ΔN24 = PnGGT ΔN24 (Pseudomonas nitroreducens, UniProt E0D5C2); test: Kinetic measurements with purified PnGGT ΔN24; assay type: biochemical
Protocol: (§2) For the experiments relating to the sulfonate based synthetic transport system, purification of PnGGT ΔN24 and PnGGT ΔN24 D405N containing an N-terminal 6×His-tag was performed according to previous reports (Van Dyke et al., 1992) using Ni-NTA Superflow (Qiagen, Hilden, Germany). For kinetic studies, PnGGT variants were purified with the aid of the 6×His-tag located at the N-terminal end of the large subunit following the same procedure. To exchange the buffer, purified proteins were dialyzed against 50 mM Tris/HCl (pH 7.0).
To determine the kinetic parameters of PnGGT ΔN24 and PnGGT ΔN24 D405N the purified enzymes were preincubated in 50 mM Tris-HCl (pH 9.0). To start the reaction, varying concentrations of the substrates L-glutamic acid γ-(3-carboxy-4-nitroanilide) or sulfobutanoyl-p-nitroanilide were added to the mixtures. The results were evaluated using GraphPad Prism (GraphPad Software, La Jolla, Calif., USA).

PnGGT* P505T [2] = test: Sulfobutanoyl-p-nitroanilide hydrolysis kinetics; assay type: biochemical, Pseudomonas nitroreducens; settings: 50 mM Tris/HCl (pH 7.0)
Protocol: FIG. 31. Sulfobutanoyl-p-nitroanilide hydrolysis kinetics of PnGGT* P505T. The kinetic parameters of PnGGT* P505T were determined in 50 mM Tris/HCl (pH 7.0) with the substrate sulfobutanoyl-p-nitroanilide added to the following concentrations: 50, 100, 250, 500, 750, 1000, 1500 and 2000 μM. […] Fitting of the kinetic data was performed with SigmaPlot v.12.2. Dots represent the average of three independent measurements with standard deviations shown as error bars.
as §2

SMILES: O=C(CCCS(=O)(=O)O)Nc1ccc([N+](=O)[O-])cc1 [sodium salt]
- activity towards substrate (PnGGT* D385Y): low activity
- activity towards substrate compared to PnGGT* (PnGGT* P505T [1]): elevated activity; also recorded: slightly elevated in vitro activity
- hydrolysis of substrate (EcGGT ΔN24 D433N): acquired the ability to hydrolyze
- in vivo release of 4-nitroaniline from the compound (TK082): only released from the SBA moiety when SsuABC and PnGGT* were simultaneously synthesized
- hydrolysis of substrate by purified enzyme (PnGGT ΔN24): no detectable activity
- improvement of catalytic efficiency (kcat/KM) over PnGGT* (PnGGT* P505T [2]): 39%
- improvement of kcat over PnGGT* (PnGGT* P505T [2]): 8%
- lower K (KM) over PnGGT* (PnGGT* P505T [2]; 50-2000 μM substrate): 27%
